Reference: PubChem BioAssay AID2060622 (Molecular Pharmacology Branch, DTP, NCI, 2025)
“And” between values parts separate entries of the source, which are not always exact repeats. Equal entries are not always repeated.

Tested on: 242566-281-R-J2-PDC complex spheroid viability
Assay: Anticancer human tumor 242566-281-R-J2-PDC patient-derived pancreatic carcinoma cell line growth inhibition [CLK]
Details: for viability, T/C: stronger effect = lower value
Procedure, shortened: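 Multi-cell-type spheroids combined patient-derived tumor cells with HUVEC endothelial cells and human mesenchymal stem cells. Paired agents were dosed in half-log steps down from about clinical Cmax, or from 10 microM where Cmax was unknown.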
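Also: spheroids exposed to compounds for 7 days before readout.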
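For viability, T/C in this document: 100% = DMSO vehicle control wells.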

Work on `Cn1ncnc1[C@H]1c2n[nH]c(=O)c3cc(F)cc(c23)N[C@@H]1c1ccc(F)cc1` + CN1CCN(c2cc(C(=O)Nc3cc4cc(-c5cnn(C)c5)ccc4cn3)ccn2)CC1 yielded an IC50 (curve of first compound, second compound 0.0316 µM) greater than 100 nM, an IC50 (curve of first compound, second compound 0.1 µM) greater than 100 nM and an IC50 (curve of first compound, second compound 0.316 µM) of less than 0.316 nM. For the same molecule, the IC50 (curve of first compound, second compound 1 µM) was less than 0.316 nM, the IC50 (curve of first compound, second compound 3.16 µM) was less than 0.316 nM and the IC50 (curve of first compound, second compound 10 µM) was less than 0.316 nM. For the same molecule, the viability, T/C (second compound 0.0316 µM, first compound 0.000316 µM) was 106%, the viability, T/C (second compound 0.0316 µM, first compound 0.001 µM) was 96.4% and the viability, T/C (second compound 0.0316 µM, first compound 0.00316 µM) was 99.5%. The viability, T/C (second compound 0.0316 µM, first compound 0.01 µM) was 107%, the viability, T/C (second compound 0.0316 µM, first compound 0.0316 µM) was 97.9% and the viability, T/C (second compound 0.0316 µM, first compound 0.1 µM) was 88%. For the same molecule, the viability, T/C (second compound 0.1 µM, first compound 0.000316 µM) was 87.7%, the viability, T/C (second compound 0.1 µM, first compound 0.001 µM) was 87.9% and the viability, T/C (second compound 0.1 µM, first compound 0.00316 µM) was 89.1%. The viability, T/C (second compound 0.1 µM, first compound 0.01 µM) was 86.6%, the viability, T/C (second compound 0.1 µM, first compound 0.0316 µM) was 84.8% and the viability, T/C (second compound 0.1 µM, first compound 0.1 µM) was 62.9%. It also gave a viability, T/C (second compound 0.316 µM, first compound 0.000316 µM) of 34%, a viability, T/C (second compound 0.316 µM, first compound 0.001 µM) of 35% and a viability, T/C (second compound 0.316 µM, first compound 0.00316 µM) of 32.3%. It also gave a viability, T/C (second compound 0.316 µM, first compound 0.01 µM) of 30.9%, a viability, T/C (second compound 0.316 µM, first compound 0.0316 µM) of 31.3% and a viability, T/C (second compound 0.316 µM, first compound 0.1 µM) of 26.8%. The viability, T/C (second compound 1 µM, first compound 0.000316 µM) was 4.47%, the viability, T/C (second compound 1 µM, first compound 0.001 µM) was 4.64% and the viability, T/C (second compound 1 µM, first compound 0.00316 µM) was 4.59%. The viability, T/C (second compound 1 µM, first compound 0.01 µM) was 4.07%, the viability, T/C (second compound 1 µM, first compound 0.0316 µM) was 3.7% and the viability, T/C (second compound 1 µM, first compound 0.1 µM) was 3.76%. The viability, T/C (second compound 3.16 µM, first compound 0.000316 µM) was 6.68%, the viability, T/C (second compound 3.16 µM, first compound 0.001 µM) was 7.67% and the viability, T/C (second compound 3.16 µM, first compound 0.00316 µM) was 6.68%. It also gave a viability, T/C (second compound 3.16 µM, first compound 0.01 µM) of 5.7%, a viability, T/C (second compound 3.16 µM, first compound 0.0316 µM) of 5.67% and a viability, T/C (second compound 3.16 µM, first compound 0.1 µM) of 5.8%. For the same molecule, the viability, T/C (second compound 10 µM, first compound 0.000316 µM) was 0.94%, the viability, T/C (second compound 10 µM, first compound 0.001 µM) was 1.5% and the viability, T/C (second compound 10 µM, first compound 0.00316 µM) was 1.24%. The viability, T/C (second compound 10 µM, first compound 0.01 µM) was 1.06%, the viability, T/C (second compound 10 µM, first compound 0.0316 µM) was 2.08% and the viability, T/C (second compound 10 µM, first compound 0.1 µM) was 1.4%.
`CC(=O)O[C@H]1C(=O)[C@@]2(C)[C@H]([C@H](OC(=O)c3ccccc3)[C@]3(O)C[C@H](OC(=O)[C@H](O)[C@@H](NC(=O)c4ccccc4)c4ccccc4)C(C)=C1C3(C)C)[C@]1(OC(C)=O)CO[C@@H]1C[C@@H]2O` was tested, and the viability, T/C (compound 0.0316 µM) was 34.2% and 57.7%, the viability, T/C (compound 0.1 µM) was 33.9% and 45% and the viability, T/C (compound 0.316 µM) was 28.5% and 35.4%. The viability, T/C (compound 1 µM) was 23.9% and 38.6%, the viability, T/C (compound 3.16 µM) was 32.5% and 40% and the viability, T/C (compound 10 µM) was 34.1% and 56.3%. For the same molecule, the IC50 (curve of compound) was < 31.6 nM and 60.1 nM.
For `Nc1ccccc1NC(=O)c1ccc(CNC(=O)OCc2cccnc2)cc1`, the viability, T/C (compound 0.0316 µM) was 97.8% and 80.4%, the viability, T/C (compound 0.1 µM) was 82% and 115% and the viability, T/C (compound 0.316 µM) was 98.7% and 85.3%. For the same molecule, the viability, T/C (compound 1 µM) was 84.6% and 107%, the viability, T/C (compound 3.16 µM) was 68% and 110% and the viability, T/C (compound 10 µM) was 14.5% and 41.5%. For the same molecule, the IC50 (curve of compound) was 4640 nM and 8460 nM.
With `CCCS(=O)(=O)Nc1ccc(F)c(C(=O)c2c[nH]c3ncc(-c4ccc(Cl)cc4)cc23)c1F` the viability, T/C (compound 0.0316 µM) was 109% and 86.7%, the viability, T/C (compound 0.1 µM) was 104% and 98.7% and the viability, T/C (compound 0.316 µM) was 94% and 81.7%. For the same molecule, the viability, T/C (compound 1 µM) was 106% and 86%, the viability, T/C (compound 3.16 µM) was 104% and 115% and the viability, T/C (compound 10 µM) was 6.44% and 6.7%. For the same molecule, the IC50 (curve of compound) was 5960 nM and 5640 nM.
`Nc1ccn(C2OC(CO)C(O)C2(F)F)c(=O)n1` (configuration not stated) was tested, and the viability, T/C (compound 0.0316 µM) was 39.5% and 87%, the viability, T/C (compound 0.1 µM) was 16.9% and 43.3% and the viability, T/C (compound 0.316 µM) was 11.7% and 21.3%. For the same molecule, the viability, T/C (compound 1 µM) was 9.16% and 13.8%, the viability, T/C (compound 3.16 µM) was 7.63% and 10.3% and the viability, T/C (compound 10 µM) was 6.49% and 9.77%. For the same molecule, the IC50 (curve of compound) was < 31.6 nM and 83.9 nM.
With `O=C(c1cc(Cc2n[nH]c(=O)c3ccccc23)ccc1F)N1CCN(C(=O)C2CC2)CC1` the viability, T/C (compound 0.0316 µM) was 107% and 93.5%, the viability, T/C (compound 0.1 µM) was 97.4% and 85.4% and the viability, T/C (compound 0.316 µM) was 96.3% and 82.3%. The viability, T/C (compound 1 µM) was 102% and 94.1%, the viability, T/C (compound 3.16 µM) was 87.1% and 111% and the viability, T/C (compound 10 µM) was 72.5% and 75.4%. The IC50 (curve of compound) was greater than 10000 nM.
